Here are results for nine compounds from ChEMBL document CHEMBL1201862, “PubChem BioAssay data set” (2004).

The structures appear in SMILES notation.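 Five concentrations, 48 hours, 96-well plates. GI50 marks 50% less growth.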 The source made the active and inactive calls. No stated cut-off is given here; in the data, active = GI50 up to about 1.1 µM and inactive = higher. Bounds are passed on as bounds.

Assay in all cases: NCI anticancer screen, dose series, 48 h
Test [1] has as its system A549.
For test [2], the system named is SNB-75.
Test [3] has as its system SW-620.
Test [4] concerns K562.
The subject of test [5] is UO-31.
For test [6], the system named is NCI-H460.
Test [7] deals with SF-268.
The test system of test [8] is OVCAR-8.
Test [9] deals with EKVX.
Test [10] concerns HL-60.
For test [11], the system named is RXF 393.
Test [12] relates to OVCAR-3.
Test [13] concerns KM-20L2.
Test [14] deals with COLO 205.
Test [15] concerns HOP-92.
In test [16] the test system is HT-29.
Test [17] relates to CCRF-CEM.
Test [18] relates to HOP-62.
Test [19] relates to MDA-MB-435.
Test [20] deals with BT-549.

As to `O=[N+]([O-])c1cccnc1S(=O)(=O)c1ccccc1`, the GI50 in test [1] is 21.8 µM (inactive); in test [2], 19.9 µM (inactive); in [3] it was 3.27 µM (inactive); in [4], 3.45 µM (inactive); in [5], 6.52 µM (inactive); in [6], 13.9 µM (inactive). Further, the GI50 in test [7] was 10.5 µM (inactive); in test [8] it was 13.8 µM (inactive); in [9], 6.4 µM (inactive); in test [10], 2.49 µM (inactive); in test [11], 1.99 µM (inactive); in test [12], 2.01 µM (inactive). Besides, the GI50 in test [13] was 12.8 µM (inactive); in [14], 5.97 µM (inactive); in test [15], 1.97 µM (inactive); in test [16] it was 6.41 µM (inactive); in test [17], 4.21 µM (inactive); in test [18], 17.3 µM (inactive).

For the compound `CC(C)/C=C1\CCC(CN(C)C)C1=O` (centres undefined), the GI50 in test [1] was 8.57 µM (inactive); in test [2] it was 3.48 µM (inactive); in test [3] it was 0.656 µM (active); in [4] it was 0.893 µM (active); in test [5], 8.79 µM (inactive); in [6], 18.9 µM (inactive). Further, the GI50 in test [7] is 8.85 µM (inactive); in test [8] it was 2 µM (inactive); in [19] it was 1.6 µM (inactive); in test [20], 3.17 µM (inactive); in test [9], 7.1 µM (inactive); in [10] it was 1.09 µM (active). The GI50 is 0.656 µM (active) in test [11]; 2.82 µM (inactive) in test [12]; 9.75 µM (inactive) in [13]; 0.586 µM (active) in test [14]; 1.31 µM (inactive) in [15]; 2.12 µM (inactive) in [16]. Also, the GI50 in [17] was 1.63 µM (inactive); in [18] it was 18.4 µM (inactive).

On to `OC1=CN=C(c2ccccc2)Oc2ccccc21`, for which the GI50 in [1] is > 100 µM (inactive); in test [2], 30.7 µM (inactive); in test [3], > 100 µM (inactive); in [4] it was > 100 µM (inactive); in [5], > 100 µM (inactive); in test [6], > 100 µM (inactive). The GI50 in test [7] is 41.4 µM (inactive); in test [8] it was > 100 µM (inactive); in [9], > 100 µM (inactive); in test [10], > 100 µM (inactive); in test [11] it was > 100 µM (inactive); in test [12], 15.3 µM (inactive). Besides, the GI50 is > 100 µM (inactive) in test [13]; > 100 µM (inactive) in [14]; > 100 µM (inactive) in [15]; > 100 µM (inactive) in test [16]; > 100 µM (inactive) in test [17]; 68.1 µM (inactive) in test [18].

`CCOC(=O)C=C1CCN(C(=O)c2ccccc2)CC1`: the GI50 in [1], in test [2], in [3], in test [4], in test [5] and in test [6] was > 100 µM (inactive) throughout. For the same compound, the GI50 in test [7], in [8], in test [9], in test [10], in test [11] and in test [12] was > 100 µM (inactive) each time. Moreover, the GI50 in [13], in test [14], in [15], in test [16], in test [17] and in [18] was > 100 µM (inactive) each time.

In the case of `CC(C)(C)c1ccc2c(c1)C(O)(c1ccccc1)c1cc(C(C)(C)C)ccc1C2(O)C(F)(F)F` (centres undefined), the GI50 in test [1] was 1.88 µM (inactive); in test [2], 2.13 µM (inactive); in test [3], 1.88 µM (inactive); in test [4], 2.56 µM (inactive); in test [5], 2.11 µM (inactive); in test [6] it was 1.61 µM (inactive). Besides, the GI50 in test [7] was 2.27 µM (inactive); in test [8], 2.12 µM (inactive); in test [9], 3.03 µM (inactive); in test [10], 2.29 µM (inactive); in [11], 1.82 µM (inactive); in test [12], 1.94 µM (inactive). Further, the GI50 in test [13] is 1.59 µM (inactive); in [14], 1.82 µM (inactive); in [15], 1.97 µM (inactive); in test [16], 1.57 µM (inactive); in test [17] it was 2.13 µM (inactive); in test [18], 1.29 µM (inactive).

Consider `O=C(CC1=Nc2nnc(CCCCCCCc3nnc4n3C(=O)C(CC(=O)c3ccccc3)=N4)n2C1=O)c1ccccc1`, for which the GI50 in test [1], in test [2], in [3], in test [4], in [5] and in [6] was > 100 µM (inactive) each time. For the same compound, the GI50 in [7], in test [8], in test [9], in test [10], in test [11] and in test [12] was > 100 µM (inactive) in each case. Also, the GI50 in test [13], in test [14], in test [15], in [16], in test [17] and in test [18] was > 100 µM (inactive) each time.

On to `C[n+]1c2ccccc2cc2c(CNC(CCCNC(=N)N)C(=O)O)cccc21` (centres undefined), for which the GI50 in [1] is 3.05 µM (inactive); in test [2], 5.62 µM (inactive); in test [3] it was 0.378 µM (active); in [4], 0.22 µM (active); in [5], 0.959 µM (active); in [6], 1.9 µM (inactive). Further, the GI50 in [7] was 0.244 µM (active); in test [8], 1.8 µM (inactive); in test [9] it was 4.66 µM (inactive); in test [10], 0.149 µM (active); in test [11], 0.0458 µM (active); in [12] it was 2 µM (inactive). For the same compound, the GI50 is 0.641 µM (active) in test [13]; 0.248 µM (active) in test [14]; 1.3 µM (inactive) in [15]; 0.303 µM (active) in [16]; 0.179 µM (active) in test [17]; 2.7 µM (inactive) in test [18].

As to `COC(=O)C(C(=O)C(=O)Nc1ccccc1OC)c1csc(-n2nc(-c3ccccc3)cc2-c2ccccc2)n1` (centres undefined), the GI50 in test [1] is > 100 µM (inactive); in test [2] it was 8.97 µM (inactive); in test [3] it was > 100 µM (inactive); in test [4], > 100 µM (inactive); in test [5], 54.7 µM (inactive); in [6] it was > 100 µM (inactive). Moreover, the GI50 in test [7] is > 100 µM (inactive); in [8], > 100 µM (inactive); in test [9] it was 43.1 µM (inactive); in test [10], > 100 µM (inactive); in test [11] it was 89.5 µM (inactive); in test [12], > 100 µM (inactive). In addition, the GI50 was > 100 µM (inactive) in test [13]; > 100 µM (inactive) in [14]; > 100 µM (inactive) in [15]; 59.3 µM (inactive) in test [16]; > 100 µM (inactive) in test [17]; > 100 µM (inactive) in [18].

As for `CCOC(=O)c1nc(C)oc1C(F)(F)F`, the GI50 in test [1], in test [2], in [3], in test [4], in test [5] and in test [6] was > 100 µM (inactive) each time. The GI50 in [7], in test [8], in [9], in test [10], in test [11] and in [12] was > 100 µM (inactive) each time. The GI50 in test [13], in test [14], in [15], in [16], in test [17] and in [18] was > 100 µM (inactive) in each case.
